This is an account of results in US5214165A, “Compounds useful as intermediates in the synthesis of shikimic acid derivatives” (Imperial Chemical Industries PLC, priority 1989, dated 1993).

The test system of test [1] is E. coli N99. Nature of the test: reversal studies of growth inhibition by 6α-fluoroshikimate. In kind it is cell-based. The note with it: in presence of 6α-fluoroshikimate; for Effect on the E. coli N99 inhibited growth: agent (each) at 100.0 μg/ml final well concentration, result in words. The protocol:
2) Reversal studies were performed by adding agents to an E. coli N99 (Davis and Mingioli broth) 10^6 cells/ml. suspension in the presence of 6α-fluoroshikimate and the bacterial growth assessed by the use of a spectrophotometer (Absorbance 540 nm)
Inhibition of bacterial growth was reversed by paraaminobenzoic acid (PABP) but degrees of counter reversion were seen after the addition of aromatic amino acid types. Using this technique the following results were observed: […]

For test [2], the system named is E. coli N99. Put plainly: disc diffusion antibacterial activity, zones of inhibition. In kind it is cell-based. The following applies: Escherichia coli; for zone of inhibition at 1.5 µg/disc: 1.5 μg applied on to disc. Here is the method:
(§1) 1) Antimicrobial activity was assessed in vitro using a disc diffusion method and a method wherein the test compound was in agar. Both methods employed the use of Davis and Mingioli (J. Bact (1950) 60 17-28) glucose agar.
i) The disc diffusion method used an overnight culture of E. coli N99 in Davis and Mingioli broth as an ioculum for the agar (e.g. 500 μl/100 ml agar). Test compounds were dissolved in distilled water and placed on to a 6 mm diameter disc which had just been applied to the agar surface. The plates were then incubated for 16 hours at 37° C. Using this method the following zones of inhibition were observed.
Background: Agar diffusion results depend on both activity and mobility in agar.

Test [3] concerns carrot cells. The note with it: well-known herbicide, in words; cited from earlier work.
Test [4] concerns E. coli N99. Nature of the test: mouse protection test. It counts as in vivo. Details: unit not given beside the values. The following applies: mice. The protocol:
4) The in vivo efficacy of the fluoroshikimate was determined by the use of a mouse protection test. Male mice (18-20 g) were inoculated intraperitoneally with ten times the previously determined LD50 for E. coli N99 in 0.4 ml of hog gastric mucin (12%). Immediately after infection the mice were dosed with 0.2 ml of test compound either subcutaneously, per os or intraperitoneally. Based on the number of survivors at day 4 post infection, PD50 values were calculated by LOGIT analysis.

The subject of the next test is E. coli 341094. Nature of the test: mouse protection test. In kind it is in vivo. More on the design: unit not given beside the values. The following applies: mice.
For another test, the system named is S. dublin 369001. Put plainly: mouse protection test. It counts as in vivo. More on the design: unit not given beside the values. The following applies: mice.
For test [5], the system named is Klebsiella pneumoniae. Put plainly: test compound in agar method, MIC. It counts as cell-based. The note with it: glucose agar, 16 hours at 37° C., read-out: MIC (minimum inhibitory concentration). The protocol:
as §1
(§2) ii) The "test compound in agar" method studied 6-α-fluoroshikimate at various final concentration in the agar (i.e. between 0 and 500 μg/ml) to obtain MIC (minimum inhibitory concentration) values for nine different bacterial cultures. Cultures were grown in Davis and Mingioli broth for 16 hours at 37° C. and diluted in fresh Davis and Mingioli broth to give 10^6 cells/ml. 1 μl volume of each culture was applied to the surface of each agar plate containing 6-α-fluoroshikimate and the plates were then incubated for 16 hours at 37° C. before each inoculation spot was visually assessed for growth. Using this technique the following results were observed: […]

The test system of another test is E. coli. N99. Nature of the test: test compound in agar method, MIC. It counts as cell-based. The note with it: Escherichia coli, glucose agar, 16 hours at 37° C., read-out: MIC (minimum inhibitory concentration). Here is the method:
as §1, §2

The next test has as its system E. coli. B. Put plainly: test compound in agar method, MIC. It counts as cell-based. The note with it: Escherichia coli, glucose agar, 16 hours at 37° C., read-out: MIC (minimum inhibitory concentration). The protocol:
as §1, §2

In a further test the test system is Bacillus subtilis. Nature of the test: test compound in agar method, MIC. In kind it is cell-based. The note with it: glucose agar, 16 hours at 37° C., read-out: MIC (minimum inhibitory concentration). Here is the method: as §1, §2
A further test deals with Serratia marcescens. Put plainly: test compound in agar method, MIC. In kind it is cell-based. The following applies: glucose agar, 16 hours at 37° C., read-out: MIC (minimum inhibitory concentration). The protocol:
as §1, §2

Test [6] relates to Enterobacter cloacae. Nature of the test: test compound in agar method, MIC. It counts as cell-based. The note with it: glucose agar, 16 hours at 37° C., read-out: MIC (minimum inhibitory concentration). The protocol:
as §1, §2

Test [7] concerns Pseudomonas aeruginosa 799/wt. Nature of the test: test compound in agar method, MIC. It counts as cell-based. The note with it: glucose agar, 16 hours at 37° C., read-out: MIC (minimum inhibitory concentration). The protocol: as §1, §2
The subject of test [8] is Klebsiella pneumoniae ATCC 25304. Nature of the test: test compound in agar method, MIC. In kind it is cell-based. The note with it: ATCC25304, glucose agar, 16 hours at 37° C., read-out: MIC (minimum inhibitory concentration). The protocol:
as §1, §2

In the next test the test system is Bacillus licheniformis. Put plainly: test compound in agar method, MIC. In kind it is cell-based. The note with it: glucose agar, 16 hours at 37° C., read-out: MIC (minimum inhibitory concentration). The protocol: as §1, §2
The subject of another test is S. aureus 601055. Put plainly: mouse protection test. It counts as in vivo. Details: unit not given beside the values. The following applies: mice.
For test [9], the system named is carrot cells. Put plainly: standard carrot cell test for herbicidal activity. The following applies: carrot cells in liquid culture, shake flasks, 25° C. It counts as cell-based. Here is the method: 5) In a standard test for herbicidal activity carrot cells were grown in shake flasks at 25° C. in liquid culture (Murashige and Skoog media with 0.2 mg/liter of kinetin and 0.1 mg/liter of 2.4 dichlorophenoxyacetic acid). The growth of cells was measured and an IC50 value obtained for compounds which were added in water.

The subject of test [10] is E. coli K12. Nature of the test: interaction with sulphamethoxazole, chequerboard titration. In kind it is cell-based. Here is the method: (§3) 3) The interaction of 6-fluoroshikimate (racemic mixture) with a representative sulphonamide (sulphamethoxazole) was tested using both a disc approximation method and chequerboard titration.
In test [11] the test system is Klebsiella pneumoniae. Put plainly: interaction with sulphamethoxazole, disc approximation method. In kind it is cell-based. The protocol:
as §3

The subject of test [12] is E. coli K12. The description is as above. It counts as cell-based. The protocol: as §3
The test system of test [13] is Enterobacter cloacae. The description is as above. In kind it is cell-based. The protocol: as §3
The mark [14] stands for this setting: 16 hours at 37° C. (α: hazy zone), read-out: mm diameter zones of inhibition vs. E. coli N99.

Molecules are shown by their SMILES. Converted amounts (≈) assume the structure as drawn. Like-named read-outs stand apart in the source and are kept apart here.

As for `N[C@@H](Cc1ccc(O)cc1)C(=O)O` [L-tyrosine], the “Effect on the E. coli N99 inhibited growth” value in the test on E. coli N99 [1] is recorded as “No reversion”.

`N[C@@H](Cc1c[nH]c2ccccc12)C(=O)O` [L-tryptophan]: the “Effect on the E. coli N99 inhibited growth” value with E. coli N99 [1] was “No reversion”.

Take `Nc1ccc(C(=O)O)cc1` [PABA, paraaminobenzoic acid]: in the test with E. coli N99 [1] (Absorbance 540 nm), the “Inhibition of bacterial growth reversed” value is listed as “reversed”.

`O=C(O)C1=C[C@@H](O)[C@@H](O)[C@H](O)[C@@H]1F` [6-β-fluoroshikimate, (3R,4R,5S,6R)6-β-Fluoroshikimic acid]: the zone of inhibition at 1.5 µg/disc with E. coli N99 [2] (setting [14]) was determined as 0 mm. In the test with E. coli N99 [2] (3.0 μg applied on to disc, 16 hours at 37° C., very hazy, read-out: mm diameter zones of inhibition vs. E. coli N99), the zone of inhibition at 3 µg/disc amounted to 13 mm. In addition, the zone of inhibition at 30 µg/disc with E. coli N99 [2] (30.0 μg applied on to disc, 16 hours at 37° C., very hazy, read-out: mm diameter zones of inhibition vs. E. coli N99) is 26 mm.

Take `O=C(O)CNCP(=O)(O)O` [glyphosate]: the “activity in the standard carrot cell test” value in the test on carrot cells [3] was “active”.

Consider `O=C(O)C1=C[C@@H](O)[C@@H](O)[C@H](O)[C@H]1F` [6-α-fluoroshikimate, (3R,4R,5S,6S)6-α-Fluoroshikimic acid], for which the “PD50 (day 4)” value with E. coli N99 [4] (intraperitoneal) was greater than 10; in the test on E. coli N99 [4] (per os), 8.6; with E. coli N99 [4] (subcutaneous), 4.6; in the test with E. coli 341094 (per os), 13.4; with E. coli 341094 (subcutaneous) it was 23.2; in the test with S. dublin 369001 (per os), 50. In addition, the “PD50 (day 4)” value with S. dublin 369001 (subcutaneous), in the test on S. aureus 601055 (per os) and in the test with S. aureus 601055 (subcutaneous) was 20 throughout. Also, the MIC in the test on Klebsiella pneumoniae [5] is 5 µg/mL (≈ 26 µM); with E. coli. N99 it was 0.1 µg/mL (≈ 0.52 µM); in the test with E. coli. B it was 1 µg/mL (≈ 5.2 µM); in the test on Bacillus subtilis, 50 µg/mL (≈ 260 µM); in the test with Serratia marcescens, greater than 500 µg/mL; in the test on Enterobacter cloacae [6] it was 50 µg/mL (≈ 260 µM). In addition, the figures for the MIC (in [7]; in [8]; in the test on Bacillus licheniformis) were greater than 500 µg/mL, 1 µg/mL (≈ 5.2 µM) and greater than 500 µg/mL, respectively. Also, the zone of inhibition at 0.025 µg/disc in the test on E. coli N99 [2] (0.025 μg applied on to disc, 16 hours at 37° C., read-out: mm diameter zones of inhibition vs. E. coli N99) was 0 mm. The zone of inhibition at 0.05 µg/disc with E. coli N99 [2] (0.05 μg applied on to disc, 16 hours at 37° C., hazy, read-out: mm diameter zones of inhibition vs. E. coli N99) is 10 mm. The zone of inhibition at 1.5 µg/disc amounted to 29 mm in the test with E. coli N99 [2] (setting [14]) and 23 mm with E. coli N99 [2] (16 hours at 37° C., inner clear, read-out: mm diameter zones of inhibition vs. E. coli N99, inner clear zone).

Turning to `N[C@@H](Cc1ccccc1)C(=O)O` [L-Phenyl alanine], the “Effect on the E. coli N99 inhibited growth” value in the test on E. coli N99 [1] was “No reversion”.

Take `O=C(O)C1=CC(O)C(O)C(O)C1F` (racemic) [6-fluoroshikimate (racemic mixture)]: in the test with carrot cells [9], the “IC50 (growth of carrot cells)” value came out at 1.5 μ/ml. Further, the “synergistic interaction with sulphamethoxazole” value in the test on E. coli K12 [10] is recorded as “synergistic interaction was confirmed”; in the test with Klebsiella pneumoniae [11], “synergistic interaction”; in the test with E. coli K12 [12], “synergistic interaction”; in the test on Enterobacter cloacae [13], “synergistic interaction”.
